Common to all, as to assay type: physicochemical
Data set [1] in a line: Electrolyte tolerance: 40% AMS added into 10 g 0.13% tested chemical in DI water. As for the experimental part: (§1) In example 1, the electrolyte tolerance of 6 chemicals with and without the presence of 2,4-D amine was evaluated in ammonium sulfate system.
Data set [2] can be described thus: Solubility of tested chemical in DI water. Here is the method: as §1
Data set [3] can be described thus: Appearance of 10 g solution of (2.5 wt % ai 2,4-D DMA + tested chemical) after adding 40% AMS. As for the experimental part: In this example, the appearance of a 10 g solution of (2.5 wt % ai 2,4-D DMA+tested chemical) was evaluated after adding 40% AMS
Data set [4] is described as follows: Solubility of tested chemical in 40% AMS (ammonium sulfate). As for the experimental part:
as §1

Data set [5] is described as follows: Compatibility of 2,4-D DMA premix with 28% N fertilizer (phase diagram, coarse particle formation). Here is the method: FIG. 2 is a photograph illustrating the effect of cocoamine-2EO methylchloride on coarse particle formation of 2,4-D ammonium salt. (A) 90% 28% N; 1% 2,4-D DMA; and 9% DI water. (B) 90% 28% N; 1% 2,4-D DMA; 5.5% DI water; and 3.5% Coco 2EO quat.
However, if 10% pre-mixed (8:2 water: 2,4-D DMA-50% ai) is added to 90% 28% N, a hazy system with coarse particles (2,4-D NH4 salt) will form in a few minutes at room temperature.

The nature of data set [6]: System appearance and pH after adding chemicals into System A. The text has this: System appearance after adding various chemicals into “System A” which was 100 g of 3% 2,4-D DMA (50%)+90% water (1000 ppm)+7% Ammonium sulfate (40%).
The mark [7] stands for this setting: at 0 g AMS added, or at all additions (All).
The mark [8] stands for this setting: 0.13 wt % a.i. of tested chemical, 10 g solution, 2.5 wt % ai 2,4-D DMA.
Setting [9] is: added into 100 g System A, added wt 0.815 g Ethoquad, 0.079 g NH4OH, 0.091 g dimethylamine, 1.07 g NaOH.

Experimental findings from US9012365B2, “Compatibility agents for herbicidal formulations comprising 2,4-(Dichlorophenoxy) acetic acid salts” (priority 2006, dated 2015) are described below.

With Cocoamine-2EO methylchloride, the “Appearance, added 40% AMS wt into 10 g 0.13% tested chemical in DI water” value in data set [1] (setting [7]) was “All clear”. Besides, in data set [1] (without 2,4-D amine), the “Solubility / compatibility in water or AMS solution (in words)” value was “excellent solubility in water and electrolyte tolerance”. Also, the “Solubility of tested chemical in DI Water” value in data set [2] is given as “All clear”. The “Compatibility in 2,4-D amine and AMS solution (in words)” value in data set [3] is recorded as “very good compatibility agent”. Also, the “0 gram Appearance” value in data set [3] (0.13 wt % a.i. of tested chemical, 2.5 wt % ai 2,4-D DMA, 0 gram 40% AMS) was “Clear”. In data set [3] (setting [8]), the “Addition Weight of 40% AMS: System was clear after adding” value stood at 2.21 grams and the “Addition Weight of 40% AMS: System was cloud after adding” value is 2.511 grams. For the same substance, in data set [3] (Table of Example 1), the “Added 40% AMS wt into 10 g (2.5% 2,4-D + 0.13% tested chemical in DI water), hazy” value was found to be 2.51 g hazy and the “Added 40% AMS wt into 10 g (2.5% 2,4-D + 0.13% tested chemical in DI water), still clear” value is on record as 2.21 g. For the same substance, the “Appearance, added 40% AMS wt into 10 g (2.5% 2,4-D + 0.13% tested chemical in DI water)” value in data set [3] (setting [7]) is given as “clear”. The “Solubility of testes chemical in 40% AMS” value in data set [4] is recorded as “All clear”. In data set [5] (10% pre-mixed (8:2 Ethoquad C/12W-43.7%: 2,4-D DMA-50% ai) added to 90% 28% N), the Spray solution obtained entry was “non-nozzle plugging spray solution”. Also, the “Effect on formation of coarse particles of the 2,4-D ammonium salt” value in data set [5] (28% N fertilizer, room temperature, FIG. 2) is given as “prevent or minimize the formation of coarse particles”. The “pH change of System A (in words)” value in data set [6] is given as “only changed slightly”. In data set [6] (setting [9]), the Appearance entry was “clear” and the pH was 5.2.
